Like-named read-outs stand apart in the source and are kept apart here.
Key:
[1] = molecular target: T1, human recombinant 5-HT2C receptor (Homo sapiens, UniProt P28335); assay: Test Example 2-2: 5-HT2C receptor binding inhibition test ([3H]-Mesulergine; non-specific ligand Ketanserin); conditions: non-specific binding with 500 µmol/L Ketanserin, 37°C, 2 hours
T1 construct: expressed in transfected cells; host or cells: Jump-In HEK cells (membrane preparation)
T1 sequence (P28335 33-458): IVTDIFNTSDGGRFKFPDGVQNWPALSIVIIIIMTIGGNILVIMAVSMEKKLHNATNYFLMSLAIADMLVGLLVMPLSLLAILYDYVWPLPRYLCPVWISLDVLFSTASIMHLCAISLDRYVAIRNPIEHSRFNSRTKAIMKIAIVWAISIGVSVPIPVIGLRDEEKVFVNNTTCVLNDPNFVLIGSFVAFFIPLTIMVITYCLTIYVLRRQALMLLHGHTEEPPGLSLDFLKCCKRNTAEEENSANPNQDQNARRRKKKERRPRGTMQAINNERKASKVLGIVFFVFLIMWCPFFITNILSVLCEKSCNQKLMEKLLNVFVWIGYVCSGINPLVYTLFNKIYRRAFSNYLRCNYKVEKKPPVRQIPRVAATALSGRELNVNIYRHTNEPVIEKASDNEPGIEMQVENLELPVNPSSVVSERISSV
Method: The Kd value is calculated when the lot of the cell membrane is changed. 1 mmol/L non-specific binding calculating compound dissolved in DMSO or DMSO is previously dispensed to the microplate by 0.5 µL, and the cell membrane is diluted with an Assay buffer. The radioactive ligand solution is diluted step by step, and counts are checked with a liquid scintillator. The Assay buffer containing diluted cell membranes is dispensed by 50 µL/well into the microplate. The radioactive ligand solution is then dispensed by 50 µL/well into the microplate and the plate is sealed. The microplate is allowed to stand at 37°C for 2 hours. During this time, 50 mmol/L Tris-HCl (pH 7.4) is dispensed by 50 µL/well into the UniFilter plate and allowed to stand at 4°C for 1 hour or longer. Thereafter, filtration is performed with a Cell Harvester (PerkinElmer). The radioactive ligand solution is dispensed by 10 µL/well into empty wells of the UniFilter plate. After drying the UniFilter plate at room temperature, MicroScinti20 is dispensed by 50 µL/well into the UniFilter plate, and the plate is sealed. UniFilter plate is allowed to stand at room temperature overnight. The radioactivity of [^3H]-Mesulergine bound to the 5-HT2C receptor is measured using Microbeta2 (PerkinElmer) at a measurement time of 1 min/well. The Saturation curve is drawn from the measured value, and the Kd value is calculated from the slope of the Scatchard Plot.
A compound solution dissolved in DMSO is dispensed to a microplate by 0.5 µL, and a cell membrane and a hot ligand are each diluted with an Assay buffer. The Assay buffer containing diluted cell membrane is then dispensed by 50 µL/well into the microplate. The radioactive ligand solution is then dispensed by 50 µL/well into the microplate and the plate is sealed. The microplate is then allowed to stand at 37°C for 2 hours. During this time, 50 mmol/L Tris-HCl (pH 7.4) is dispensed by 50 µL/well into the UniFilter plate and allowed to stand at 4°C for 1 hour or longer. Thereafter, filtration is performed with a Cell Harvester (PerkinElmer). After drying the UniFilter plate at room temperature, MicroScinti20 is dispensed by 50 µL/well into the UniFilter plate, and the plate is sealed. UniFilter plate is allowed to stand at room temperature overnight. The radioactivity of [^3H]-Mesulergine bound to the 5-HT2C receptor is measured using Microbeta2 (PerkinElmer) at a measurement time of 1 min/well. Non-specific binding is calculated from the radioactivity of [^3H]-Mesulergine in the presence of 500 µmol/L Ketanserin of unlabeled ligand, and total binding is calculated from the radioactivity of [^3H]-Mesulergine in the absence of the compound of the present invention (Vehicle). Finally, the Ki value is calculated from the dose-response curve.
(The binding activity of the compound according to the present invention is calculated from the following binding inhibition rate (%).) Inhibition rate (%) = [1−(c−a)/(b−a)] × 100 [formula] • a; average cpm of non-specific binding • b; average cpm of total binding • c; cpm in the presence of the test compound
The compounds of the present invention were tested essentially as described above.

[2] = molecular target: T2, human recombinant 5-HT2A receptor (Homo sapiens, UniProt P28223); assay: Test Example 1-2: 5-HT2A receptor binding inhibition test ([3H]-Ketanserin; non-specific ligand Ketanserin)
T2 construct: expressed in transfected cells; host or cells: Jump-In HEK cells (membrane preparation)
T2 sequence (P28223 whole entry): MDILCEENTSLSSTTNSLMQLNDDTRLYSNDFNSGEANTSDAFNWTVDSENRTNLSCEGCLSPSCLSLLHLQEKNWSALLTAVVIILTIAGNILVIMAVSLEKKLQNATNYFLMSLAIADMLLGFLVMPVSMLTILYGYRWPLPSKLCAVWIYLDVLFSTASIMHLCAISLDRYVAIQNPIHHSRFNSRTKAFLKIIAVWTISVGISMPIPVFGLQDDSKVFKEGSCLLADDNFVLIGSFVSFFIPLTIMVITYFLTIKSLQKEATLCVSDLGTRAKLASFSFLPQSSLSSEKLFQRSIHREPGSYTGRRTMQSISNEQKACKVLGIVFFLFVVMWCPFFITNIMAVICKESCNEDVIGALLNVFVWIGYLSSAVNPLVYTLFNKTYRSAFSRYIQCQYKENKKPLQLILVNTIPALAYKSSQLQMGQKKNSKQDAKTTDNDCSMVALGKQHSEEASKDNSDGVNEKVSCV
Summary of the method: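 Ki values were derived from dose-response inhibition of [3H]-ketanserin binding; nonspecific binding was set with 500 µmol/L ketanserin, and Kd was set for each membrane lot from Scatchard saturation plots. Incubation lasted 1.5 h at room temperature (25 °C). Bound radioligand was harvested on Tris-HCl (pH 7.4)-presoaked filters and counted.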

[3] = [3H]-Ketanserin, non-specific binding with 500 µmol/L Ketanserin, room temperature (25°C), 1.5 hours, read-out: h 5-HT2A Ki

SMILES	Ki [1] [nM]	Ki [2, 3] [nM]	Ki [2] [nM]
Cc1nc(C)c(-c2cc(Nc3ccc(C(F)(F)F)cn3)ccc2OCCO)c(C)n1 [Compound I-122]	1.38	0.485	–
Cc1nc(C)c(-c2cc(Nc3ncc(C(F)(F)F)cc3F)ccc2OCCO)c(C)n1 [Compound I-097]	1.34	0.509	–
Cn1ncc(Br)c1-c1cc(Nc2ncc(Cl)cc2F)c(F)cc1OCCO [Compound I-152]	0.52	0.354	–
COc1ncccc1-c1cc(Nc2ncc(C(F)(F)F)cc2F)ccc1OCCO [Compound I-014]	8.88	0.413	–
Cc1ncnc(C)c1-c1cc(Nc2ccc(Cl)cn2)ccc1OCCO [Compound I-103]	9.13	0.351	–
COc1cnc(Nc2ccc(OCCO)c(-c3c(Br)cnn3C)c2)c(F)c1 [Compound I-079]	0.625	0.295	–
Cn1ncc(Br)c1-c1cc(Nc2ncc(Cl)cn2)cnc1OCCO [Compound I-132]	5	0.236	–
Cc1cncc(C)c1-c1cc(Nc2ncc(C(F)(F)F)cc2F)ccc1OCCO [Compound I-030]	0.881	0.31	–
Cn1ncc(F)c1-c1cc(Nc2ncc(C(F)(F)F)cc2F)ccc1OCCO [Compound I-018]	1.89	0.235	–
Cn1ncc(Br)c1-c1cc(Nc2nc3c(Cl)cccc3s2)ccc1OCCO [Compound I-071]	1.96	0.379	–
Cn1ncc(Br)c1-c1cc(Nc2nc3cc(Cl)ccc3[nH]2)ccc1OCCO [Compound I-078]	1.1	0.263	–
Cn1ncc(Br)c1-c1cc(Nc2nc3ccc(F)cc3n2C)ccc1OCCO [Compound I-092]	2.76	0.274	–
Cn1ncc(Br)c1-c1cc(Nc2ncc(Cl)c3ccccc23)ccc1OCCO [Compound I-113]	3.09	0.295	–
Cn1ncc(Br)c1-c1cc(Nc2ccc(Cl)cn2)c(F)cc1OCCO [Compound I-153]	0.351	0.286	–
Cc1cnn(C)c1-c1cc(Nc2ncc(C(F)(F)F)cc2F)c(Oc2ccn(C)n2)cc1OCCO [Compound I-035]	2.35	2.54	–
Cc1cccc(F)c1-c1cc(Nc2ncc(C(F)(F)F)cc2F)ccc1OCCO [Compound I-020]	5.38	–	1.12
Cn1ncc(Br)c1-c1cc(Nc2ncccc2F)ccc1OCCO [Compound I-045]	3.77	0.235	–
Cn1ncc(Br)c1-c1nc(Nc2ccc(C(F)(F)F)cn2)ccc1OCCO [Compound I-073]	0.936	–	0.184
Cn1ncc(Br)c1-c1cc(Nc2ncc(F)cc2F)c(F)cc1OCCO [Compound I-154]	1.1	0.332	–
OCCOc1ccc(Nc2ncc(C(F)(F)F)cc2F)cc1-c1ccnc(F)c1Cl [Compound I-026]	7.89	0.894	–
Cn1nccc1-c1cc(Nc2ncc(C(F)(F)F)cc2F)ncc1OCCO [Compound I-059]	30	0.45	–
Cc1nc(C)c(-c2cc(Nc3ccc(C(F)(F)F)cn3)c(F)cc2OCCO)c(C)n1 [Compound I-158]	3.5	0.907	–
Cn1ncc(Br)c1-c1cc(Nc2nc3cc(Cl)ccc3s2)ccc1OCCO [Compound I-069]	0.36	0.373	–
CCc1cnn(C)c1-c1cc(Nc2ncc(C(F)(F)F)cc2F)ccc1OCCO [Compound I-055]	0.745	0.396	–
Cc1nn(C)c(C)c1-c1cc(Nc2ncc(C(F)(F)F)cc2F)ccc1OCCO [Compound I-022]	48.4	0.428	–

SMILES	Ki [1] [nM]	Ki [2, 3] [nM]	Ki [2] [nM]
Cn1ncc(Br)c1-c1cc(Nc2ncc(C(F)(F)F)cc2F)c(F)cc1OCCO [Compound I-150]	0.239	0.279	–
Cc1ccc(-c2cc(Nc3ncc(C(F)(F)F)cc3F)ccc2OCCO)c(C)n1 [Compound I-025]	3.7	0.25	–
Cn1ncc(Cl)c1-c1cc(Nc2ncc(F)cc2F)ccc1OCCO [Compound I-137]	0.772	0.205	–
Cn1ncc(C#N)c1-c1cc(Nc2ncc(Cl)cc2F)ccc1OCCO [Compound I-051]	2.6	0.318	–
Cn1ncc(Br)c1-c1cc(Nc2ncc(C(F)(F)F)cn2)ccc1OCCO [Compound I-105]	0.6	0.314	–
OCCOc1ccc(Nc2ncc(C(F)(F)F)cc2F)cc1-c1c(Br)cnn1C1CC1 [Compound I-067]	0.196	0.403	–
Cn1ncc(Br)c1-c1cc(Nc2ccc(C(F)(F)F)cn2)c(F)cc1OCCO [Compound I-151]	0.206	0.292	–
Cn1ncc(F)c1-c1cc(Nc2ncc(Cl)cc2F)cnc1OCCO [Compound I-139]	7.73	0.431	–
Cn1ncc(C#N)c1-c1cc(Nc2ncc(C(F)(F)F)cc2F)cnc1OCCO [Compound I-087]	6.37	0.241	–
Cn1ncc(Br)c1-c1cc(Nc2nc3ccc(F)cc3s2)ccc1OCCO [Compound I-070]	0.213	0.302	–
COc1ccc2nc(Nc3ccc(OCCO)c(-c4c(Br)cnn4C)c3)sc2c1 [Compound I-085]	0.55	0.192	–
Cn1ncc(Br)c1-c1cc(Nc2ccc(OC(F)(F)F)cc2)ccc1OCCO [Compound I-061]	1.31	0.254	–
Cc1cnn(C)c1-c1cc(Nc2ncc(Cl)cc2F)ccc1OCCO [Compound I-140]	1.06	0.148	–
Cc1nc(C)c(-c2cc(Nc3ccc(Cl)cn3)ccc2OCCO)c(C)n1 [Compound I-123]	5.59	0.81	–
Cn1ncc(Br)c1-c1cc(Nc2nc3cc(F)ccc3n2C)ccc1OCCO [Compound I-101]	3.11	0.497	–
Cn1ncc(Br)c1-c1cc(Nc2ncc(C3CC3)s2)ccc1OCCO [Compound I-038]	0.666	0.215	–
COC(=O)c1cnc(Nc2ccc(OCCO)c(-c3c(Br)cnn3C)c2)c(F)c1 [Compound I-046]	1.33	0.318	–
Cc1cnn(C)c1-c1cc(Nc2ccc(C(F)(F)F)cn2)c(Oc2ccn(C)n2)cc1OCCO [Compound I-126]	4.42	0.654	–
Cn1ncc(Br)c1-c1cc(Nc2nc3cc(Br)ccc3n2C)ccc1OCCO [Compound I-084]	0.297	0.442	–
Cc1nc(C)c(-c2cc(Nc3ncc(C(F)(F)F)cc3F)cnc2OCCO)c(C)n1 [Compound I-135]	7.13	1.24	–
Cn1ncc(Br)c1-c1cc(Nc2ncc(C(F)(F)F)cn2)c(F)cc1OCCO [Compound I-148]	0.906	0.506	–
Cn1ncc(Br)c1-c1cc(Nc2cc(C(F)(F)F)ccn2)ccc1OCCO [Compound I-047]	4.26	0.207	–
OCCOc1ccc(Nc2ncc(C(F)(F)F)cc2F)cc1-c1c(F)cccc1Cl [Compound I-019]	3.12	0.548	–
Cn1ncc(Br)c1-c1cc(Nc2ccc(Cl)cn2)cnc1OCCO [Compound I-116]	0.745	0.325	–

— patent publication EP4631938A1, “NITROGEN-CONTAINING HETEROCYCLE WITH SEROTONIN RECEPTOR-BINDING ACTIVITY AND CARBOCYCLIC DERIVATIVE” (Shionogi & Co., Ltd, priority 2022, dated 2024)
